# Measurements as given in US8629102B2, “3-hydroxyisothiazole 1-oxide derivatives” (Mochida Pharmaceutical Co., Ltd., priority 2011, dated 2014).
# Molecular target: T1, GPR40 of human origin (Homo sapiens, UniProt O14842)
# T1 construct: expressed in transfected cells
# Assay: Agonist action on GPR40 of human origin (intracellular Ca2+ change)
# Type: cell-based
# Conditions: CHO cell strain stably expressing GPR40 of human origin; change in Ca2+ concentration, fluorescent calcium indicator
# Method in brief: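 CHO cells stably expressing human GPR40, cultured overnight, then loaded 1 h with Calcium 4 dye plus probenecid in HEPES-buffered HBSS. Compound added in 20 mM HEPES-HBSS; intracellular Ca2+ change read by fluorescence, EC50 from dose-response of fluorescence change.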
# T1 sequence (O14842 whole entry): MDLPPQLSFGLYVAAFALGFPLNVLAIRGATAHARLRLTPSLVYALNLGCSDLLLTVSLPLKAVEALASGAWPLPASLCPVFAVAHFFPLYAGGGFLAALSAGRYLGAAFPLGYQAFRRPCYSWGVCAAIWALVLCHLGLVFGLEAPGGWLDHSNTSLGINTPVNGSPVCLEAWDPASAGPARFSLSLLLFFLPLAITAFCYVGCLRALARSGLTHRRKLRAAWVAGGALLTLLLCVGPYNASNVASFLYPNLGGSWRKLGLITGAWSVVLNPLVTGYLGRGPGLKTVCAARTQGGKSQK
row,EC50,Structure (SMILES)
1,< 300 nM,"CCOc1ccc(-c2cccc3c2CC[C@H]3Oc2ccc(-c3cc(O)n[s+]3[O-])cc2)cc1Cl (stereo partly drawn) [Example 60, 5-(4-(((R)-4-(3-chloro-4-ethoxyphenyl)-2,3-dihydro-1H-inden-1-yl)oxy)phenyl)-3-hydroxyisothiazole 1-oxide]"
2,< 300 nM,"COc1ccc(F)c(-c2cccc3c2CC[C@H]3Oc2ccc(-c3cc(O)n[s+]3[O-])cc2)c1 (stereo partly drawn) [Example 53, 5-(4-(((R)-4-(2-fluoro-5-methoxyphenyl)-2,3-dihydro-1H-inden-1-yl)oxy)phenyl)-3-hydroxyisothiazole 1-oxide]"
3,< 300 nM,"[O-][s+]1nc(O)cc1-c1ccc(O[C@@H]2CCc3c(-c4cc(C(F)(F)F)ccc4F)cccc32)cc1 (stereo partly drawn) [Example 67, 5-(4-(((R)-4-(2-fluoro-5-trifluoromethylphenyl)-2,3-dihydro-1H-inden-1-yl)oxy)phenyl)-3-hydroxyisothiazole 1-oxide]"
4,< 300 nM,"[O-][s+]1nc(O)cc1-c1ccc(OCC2=CC3(CCCC3)CCC2)cc1 (stereo not drawn) [Example 122, 3-hydroxy-5-(4-(spiro[4.5]dec-6-en-7-ylmethoxy)phenyl)isothiazole 1-oxide]"
5,< 300 nM,"[O-][s+]1nc(O)cc1-c1ccc(O[C@@H]2CCc3c(-c4cccnc4Cl)cccc32)cc1 (single isomer, unassigned) [Example 75]"
6,< 300 nM,"NC(=O)c1ccc(-c2cccc3c2CC[C@H]3Oc2ccc(-c3cc(O)n[s+]3[O-])cc2)cn1 (stereo partly drawn) [Example 77, 5-((1R)-1-(4-(3-hydroxy-1-oxidoisothiazole-5-yl)phenoxy)-2,3-dihydro-1H-inden-4-yl)picolinamide]"
7,< 300 nM,"N#Cc1ccc(Oc2cccc3c2CC[C@H]3Oc2ccc(-c3cc(O)n[s+]3[O-])cc2)cn1 (stereo partly drawn) [Example 119, 5-(((1R)-1-(4-(3-hydroxy-1-oxidoisothiazol-5-yl)phenoxy)-2,3-dihydro-1H-inden-4-yl)oxy)picolinonitrile]"
8,300 to 3000 nM,"[O-][s+]1nc(O)cc1-c1ccc(O[C@@H]2CCc3c(-c4ccc(Cl)cc4C(F)(F)F)cccc32)cc1 (stereo partly drawn) [Example 69, 5-(4-(((R)-4-(4-chloro-2-trifluoromethylphenyl)-2,3-dihydro-1H-inden-1-yl)oxy)phenyl)-3-hydroxyisothiazole 1-oxide]"
9,< 300 nM,"CC(C)c1ccc(-c2cccc3c2CC[C@H]3Oc2ccc(-c3cc(O)n[s+]3[O-])cc2)c(Cl)n1 (stereo partly drawn) [Example 76, 5-(4-(((R)-4-(6-isopropyl-2-chloropyridin-3-yl)-2,3-dihydro-1H-inden-1-yl)oxy)phenyl)-3-hydroxyisothiazole 1-oxide]"
10,< 300 nM,"[O-][s+]1nc(O)cc1-c1ccc(O[C@@H]2CCc3c(Oc4cnc5ccccc5c4)cccc32)cc1 (stereo partly drawn) [Example 104, 3-hydroxy-5-(4-(((R)-4-(quinolin-3-yloxy)-2,3-dihydro-1H-inden-1-yl)oxy)phenyl)isothiazole 1-oxide]"
11,< 300 nM,"COc1cccc(-c2cccc3c2CC[C@H]3Oc2ccc(-c3cc(O)n[s+]3[O-])cc2)c1 (stereo partly drawn) [Example 30, 5-(4-(((R)-4-(3-methoxyphenyl)-2,3-dihydro-1H-inden-1-yl)oxy)phenyl)-3-hydroxyisothiazole 1-oxide]"
12,< 300 nM,"Cc1cc(-c2cccc3c2CC[C@H]3Oc2ccc(-c3cc(O)n[s+]3[O-])cc2)ccc1F (stereo partly drawn) [Example 38, 5-(4-(((R)-4-(4-fluoro-3-methylphenyl)-2,3-dihydro-1H-inden-1-yl)oxy)phenyl)-3-hydroxyisothiazole 1-oxide]"
13,< 300 nM,"COc1ccc(-c2cccc3c2CC[C@H]3Oc2ccc(-c3cc(O)n[s+]3[O-])cc2)c(Cl)c1 (stereo partly drawn) [Example 48, 5-(4-(((R)-4-(2-chloro-4-methoxyphenyl)-2,3-dihydro-1H-inden-1-yl)oxy)phenyl)-3-hydroxyisothiazole 1-oxide]"
14,< 300 nM,"[O-][s+]1nc(O)cc1-c1ccc(OCc2ccc(Oc3ccccc3)cc2)cc1 (stereo not drawn) [Example 159, 3-hydroxy-5-(4-((4-phenoxybenzyl)oxy)phenyl)isothiazole 1-oxide]"
15,< 300 nM,"[O-][s+]1nc(O)cc1-c1ccc(O[C@@H]2CCc3c(-c4ccccc4F)cccc32)cc1 (stereo partly drawn) [Example 11, 5-(4-(((R)-4-(2-fluorophenyl)-2,3-dihydro-1H-inden-1-yl)oxy)phenyl)-3-hydroxyisothiazole 1-oxide]"
16,< 300 nM,"[O-][s+]1nc(O)cc1-c1ccc(O[C@@H]2CCc3c(-c4cccc5c4oc4ccccc45)cccc32)cc1 (single isomer, unassigned) [Example 80]"
17,< 300 nM,"[O-][s+]1nc(O)cc1-c1ccc(OC2CCc3cc(Br)ccc32)cc1 (stereo not drawn) [Example 1, 5-(4-((5-bromo-2,3-dihydro-1H-inden-1-yl)oxy)phenyl)-3-hydroxyisothiazole 1-oxide]"

row,EC50,Structure (SMILES)
1,< 300 nM,"Cc1cccc(Oc2cccc3c2OCC3Oc2ccc(-c3cc(O)n[s+]3[O-])cc2)c1 (stereo not drawn) [Example 155, 3-hydroxy-5-(4-((7-(m-tolyloxy)-2,3-dihydrobenzofuran-3-yl)oxy)phenyl)isothiazole 1-oxide]"
2,< 300 nM,"Cc1ccnc(Oc2cccc3c2CC[C@H]3Oc2ccc(-c3cc(O)n[s+]3[O-])cc2)c1 (stereo partly drawn) [Example 133, 3-hydroxy-5-(4-(((R)-4-((4-methylpyridin-2-yl)oxy)-2,3-dihydro-1H-inden-1-yl)oxy)phenyl)isothiazole 1-oxide]"
3,< 300 nM,"COc1ccc(-c2cccc3c2CC[C@H]3Oc2ccc(-c3cc(O)n[s+]3[O-])cc2)c(OC)c1 (stereo partly drawn) [Example 49, 5-(4-(((R)-4-(2,4-dimethoxyphenyl)-2,3-dihydro-1H-inden-1-yl)oxy)phenyl)-3-hydroxyisothiazole 1-oxide]"
4,< 300 nM,"Cc1ccc(Cl)c(-c2cccc3c2CC[C@H]3Oc2ccc(-c3cc(O)n[s+]3[O-])cc2)c1 (single isomer, unassigned) [Example 15]"
5,< 300 nM,"[O-][s+]1nc(O)cc1-c1ccc(O[C@@H]2CCc3c(-c4ccc(F)cc4)cccc32)cc1 (stereo partly drawn) [Example 21, 5-(4-(((R)-4-(4-fluorophenyl)-2,3-dihydro-1H-inden-1-yl)oxy)phenyl)-3-hydroxyisothiazole 1-oxide]"
6,300 to 3000 nM,"CC(C)c1ccc(-c2cccc3c2CC[C@H]3Oc2ccc(-c3cc(O)n[s+]3[O-])cc2)cc1 (single isomer, unassigned) [Example 26]"
7,< 300 nM,"COc1cc(F)ccc1-c1cccc2c1CC[C@H]2Oc1ccc(-c2cc(O)n[s+]2[O-])cc1 (stereo partly drawn) [Example 51, 5-(4-(((R)-4-(4-fluoro-2-methoxyphenyl)-2,3-dihydro-1H-inden-1-yl)oxy)phenyl)-3-hydroxyisothiazole 1-oxide]"
8,< 300 nM,"COc1ccc(Cl)c(-c2cccc3c2CC[C@H]3Oc2ccc(-c3cc(O)n[s+]3[O-])cc2)c1 (stereo partly drawn) [Example 52, 5-(4-(((R)-4-(2-chloro-5-methoxyphenyl)-2,3-dihydro-1H-inden-1-yl)oxy)phenyl)-3-hydroxyisothiazole 1-oxide]"
9,< 300 nM,"N#Cc1ccc(Oc2cccc3c2OCC3Oc2ccc(-c3cc(O)n[s+]3[O-])cc2)cc1 (single isomer, unassigned) [Example 144-a, 4-((3-(4-(3-hydroxy-1-oxidoisothiazol-5-yl)phenoxy)-2,3-dihydrobenzofuran-7-yl)oxy)benzonitrile]"
10,300 to 3000 nM,"CCc1ccc(-c2cccc3c2CC[C@H]3Oc2ccc(-c3cc(O)n[s+]3[O-])cc2)cc1 (stereo partly drawn) [Example 20, 5-(4-(((R)-4-(4-ethylphenyl)-2,3-dihydro-1H-inden-1-yl)oxy)phenyl)-3-hydroxyisothiazole 1-oxide]"
11,< 300 nM,"Cc1cccc(-c2cccc3c2CC[C@H]3Oc2ccc(-c3cc(O)n[s+]3[O-])cc2)c1 (stereo partly drawn) [Example 24, 5-(4-(((R)-4-(3-methylphenyl)-2,3-dihydro-1H-inden-1-yl)oxy)phenyl)-3-hydroxyisothiazole 1-oxide]"
12,< 300 nM,"CN(C)C(=O)c1ccc(Oc2cccc3c2CC[C@H]3Oc2ccc(-c3cc(O)n[s+]3[O-])cc2)cc1 (stereo partly drawn) [Example 137, 4-(((R)-1-(4-(3-hydroxy-1-oxidoisothiazol-5-yl)phenoxy)-2,3-dihydro-1H-inden-4-yl)oxy)-N,N-dimethylbenzamide]"
13,< 300 nM,"O=C(c1ccc(Oc2cccc3c2CC[C@H]3Oc2ccc(-c3cc(O)n[s+]3[O-])cc2)cc1)N1CCCC1 (stereo partly drawn) [Example 147, (4-(((R)-1-(4-(3-hydroxy-1-oxidoisothiazol-5-yl)phenoxy)-2,3-dihydro-1H-inden-4-yl)oxy)phenyl)(pyrrolidine-1-yl)methanone]"
14,< 300 nM,"N#Cc1ccc(-c2cccc3c2CC[C@H]3Oc2ccc(-c3cc(O)n[s+]3[O-])cc2)cc1 (stereo partly drawn) [Example 156, 4-((1R)-1-(4-(3-hydroxy-1-oxidoisothiazol-5-yl)phenoxy)-2,3-dihydro-1H-inden-4-yl)benzonitrile]"
15,300 to 3000 nM,"Cc1cccc(C)c1N1CCC(COc2ccc(-c3cc(O)n[s+]3[O-])cc2)C1 (stereo not drawn) [Example 121, 5-(4-((1-(2,6-dimethylphenyl)pyrrolidin-3-yl)methoxy)phenyl)-3-hydroxyisothiazole 1-oxide]"
16,< 300 nM,"N#Cc1cccc(Oc2cccc3c2CC[C@H]3Oc2ccc(-c3cc(O)n[s+]3[O-])cc2)c1 (stereo partly drawn) [Example 86, 3-(((1R)-1-(4-(3-hydroxy-1-oxidoisothiazol-5-yl)phenoxy)-2,3-dihydro-1H-inden-4-yl)oxy)benzonitrile]"
17,< 300 nM,"[O-][s+]1nc(O)cc1-c1ccc(O[C@@H]2CCc3c(-c4cccc(Cl)c4)cccc32)cc1 (stereo partly drawn) [Example 8, 5-(4-(((R)-4-(3-chlorophenyl)-2,3-dihydro-1H-inden-1-yl)oxy)phenyl)-3-hydroxyisothiazole 1-oxide]"

row,Structure (SMILES),EC50
1,"CC(C)(O)CCOc1ccc(Oc2cccc3c2CC[C@H]3Oc2ccc(-c3cc(O)n[s+]3[O-])cc2)cn1 (stereo partly drawn) [Example 97, 3-hydroxy-5-(4-(((R)-4-((6-(3-hydroxy-3-methylbutoxy)pyridin-3-yl)oxy)-2,3-dihydro-1H-inden-1-yl)oxy)phenyl)isothiazole 1-oxide]",< 300 nM
2,"CN1CC2(CCN(Cc3ccc(COc4ccc(-c5cc(O)n[s+]5[O-])cc4)cc3)CC2)c2ccccc21 (stereo not drawn) [Example 124, 3-hydroxy-5-(4-((4-((1-methylspiro[indolin-3,4′-piperidin]-1′-yl)methyl)benzyl)oxy)phenyl)isothiazole 1-oxide]",300 to 3000 nM
